Measurements reported in PubChem BioAssay (NCI).
Where “and” joins values, the source holds several entries; their conditions need not be identical. Identical values can stand only once.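 In this assay, cells in 96-well plates receive the compound at five concentrations for 48 hours. Endpoints are linearly interpolated between the surrounding concentrations. GI50 is the concentration that inhibits growth by half. TGI is the concentration that stops growth completely.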

How the values were obtained:
Assay in all cases: NCI-60 cell line screen, 48 h
786-0 renal = test system: 786-0 renal
K-562 leukemia = test system: K-562 leukemia
NCI-H23 lung = test system: NCI-H23 lung
OVCAR-3 ovarian = test system: OVCAR-3 ovarian
RXF 393 renal = test system: RXF 393 renal
SF-295 CNS = test system: SF-295 CNS
BT-549 breast = test system: BT-549 breast
CAKI-1 renal = test system: CAKI-1 renal
HOP-62 NSCLC = test system: HOP-62 NSCLC
OVCAR-4 ovarian = test system: OVCAR-4 ovarian

Row | Structure (SMILES) | TGI (786-0 renal) | TGI (K-562 leukemia) | TGI (NCI-H23 lung) | TGI (OVCAR-3 ovarian) | TGI (RXF 393 renal) | TGI (SF-295 CNS) | TGI (BT-549 breast) | TGI (CAKI-1 renal) | TGI (HOP-62 NSCLC) | TGI (OVCAR-4 ovarian) | GI50 (BT-549 breast) | GI50 (K-562 leukemia) | GI50 (RXF 393 renal) | GI50 (SF-295 CNS)
1 | COCOc1ccc(Cn2c(=O)n(C)c(=O)c3c2ncn3C)cc1[N+](=O)[O-] | > 100 µM | > 100 µM | > 100 µM | > 100 µM | > 100 µM | > 100 µM | – | – | – | – | – | – | – | –
2 | O=C1/C(=C\c2cccc(Oc3ccccc3)c2)S(=O)(=O)C(c2ccccc2)N1Cc1ccccc1 (stereo not given) | 40.1 µM | > 100 µM | > 100 µM | 34.2 µM | 77.5 µM | > 100 µM | 98.6 µM | 75 µM | > 100 µM | – | – | – | – | –
3 | COc1nc(C#CCC(C)O)nc(OC)n1 (stereo not given) | – | > 100 µM | 43.4 µM | 47.9 µM | 24.2 µM | > 100 µM | 36 µM | 31.9 µM | 36.8 µM | 36.2 µM | – | – | – | –
4 | Cc1c(C(=O)CSc2nc3ccccc3c(=O)n2-c2ccccc2)c(=O)n(-c2ccccc2)n1C | 38.9 µM | – | > 100 µM | 73.5 µM | – | 66.2 µM | – | 0.729 µM | 69.1 µM | > 100 µM | – | – | – | –
5 | O=C(/C=C/c1ccsc1)c1ccsc1 | 47.4 µM | – | 54.8 µM | – | – | > 100 µM | – | 41.4 µM | > 100 µM | > 100 µM | – | – | – | –
6 | CC(C(=O)n1nnc2ccccc21)N(c1ccccc1)c1ccccc1 (stereo not given) | > 100 µM | > 100 µM | > 100 µM | > 100 µM | > 100 µM | > 100 µM | – | > 100 µM | > 100 µM | – | – | – | – | –
7 | CC1(C)N=C(C(N)=O)c2ncn(CCCO)c2N1 | > 100 µM | > 100 µM | > 100 µM | > 100 µM | > 100 µM | > 100 µM | – | > 100 µM | > 100 µM | > 100 µM | – | – | – | –
8 | CC[C@H]1CN2CCc3cc(OC)c(OC)cc3[C@@H]2C[C@@H]1C[C@H]1NCCc2cc(OC)c(OC)cc21 | 0.0621 µM and 0.248 µM | 0.0932 µM | 0.14 µM and 0.026 µM | 0.187 µM and 0.18 µM | 0.0593 µM | – | 0.658 µM | 0.111 µM and 0.333 µM | 0.216 µM and 0.221 µM | 0.0541 µM and 0.0117 µM | – | – | – | –
9 | Cc1c(S(=O)(=O)/N=C(\N)Nc2ccc(Cl)cc2)sc2ccc(Cl)cc12 | 33.7 µM | > 100 µM | 41.5 µM | 36.5 µM | > 100 µM | 46.7 µM | 58 µM | – | 36.9 µM | 68.8 µM | – | – | – | –
10 | C1=CC2=CC=CC3c4nc5ccc6ccccc6c5nc4C(=C1)C23 (stereo not given) | > 100 µM | > 100 µM | > 100 µM | > 100 µM | > 100 µM | > 100 µM | – | > 100 µM | > 100 µM | > 100 µM | – | – | – | –
11 | O=C(NC(Cc1ccc(I)cc1)C(=O)O)c1ccc(I)cc1 (stereo not given) | – | > 100 µM | > 100 µM | 97.4 µM | > 100 µM | > 100 µM | – | > 100 µM | > 100 µM | > 100 µM | – | – | – | –
12 | COc1cc([N+](=O)[O-])c(OC)cc1-c1nc2sc(Cl)cn2c1/C=N/Nc1ccccn1 | – | > 50 µM | – | – | 26.2 µM | 41.8 µM | 38.7 µM | – | – | – | 15.5 µM | > 50 µM | 12.6 µM | 12.4 µM
13 | CO[C@]12CC(=O)C3(C(C[C@H]4CC5CC=C6C[C@@H](OC(C)=O)CC[C@]6(OC(C)=O)C5C[C@@]43C)C1)C1C[C@H]3[C@@H]4CC=C5C[C@@H](OC(C)=O)CC[C@]5(OC(C)=O)[C@H]4CC[C@]3(C)C12 (stereo not given in full) | > 100 µM | > 100 µM | 39 µM | 56.4 µM | – | 54 µM | – | 34.3 µM | 37.9 µM | 24.4 µM | – | – | – | –
14 | CN(C)Cc1cc(C(=O)/C=C/c2ccc(O)cc2)cc(CN(C)C)c1O | > 100 µM | > 100 µM | > 100 µM | 56.2 µM | > 100 µM | > 100 µM | > 100 µM | > 100 µM | > 100 µM | – | – | – | – | –
15 | CN(C)c1nc(=NCc2ccccc2)ss1 | > 10 µM | > 10 µM | > 10 µM | > 10 µM | > 10 µM | > 10 µM | – | > 10 µM | > 10 µM | > 10 µM | – | – | – | –
16 | Cc1ccccc1C(O)(c1nccn1C)c1nccn1C | > 100 µM | > 100 µM | – | > 100 µM | > 100 µM | > 100 µM | > 100 µM | > 100 µM | > 100 µM | > 100 µM | – | – | – | –
17 | O=C(NCCCN(CCCCN(CCCNC(=O)C(F)(F)F)Cc1ccccc1)Cc1ccccc1)C(F)(F)F | 25.1 µM | 30.6 µM | 30.9 µM | – | 32.6 µM | 30 µM | 28.1 µM | 26.4 µM | – | 68.1 µM | – | – | – | –
18 | CC(=O)OCC1OC(n2cc([N+](=O)[O-])c(=O)[nH]c2=O)C(OC(C)=O)C(OC(C)=O)C1OC(C)=O (stereo not given) | > 100 µM | > 100 µM | > 100 µM | > 100 µM | > 100 µM | > 100 µM | – | > 100 µM | > 100 µM | > 100 µM | – | – | – | –
19 | C/C(CC1C2CCCC1C2)=N\NC(N)=O (stereo not given) | > 100 µM | – | > 100 µM | > 100 µM | – | > 100 µM | > 100 µM | > 100 µM | > 100 µM | > 100 µM | – | – | – | –
20 | CC(C)(C)NC(=O)/C(=C\Sc1ccccc1)c1ccc2c(c1)OCO2 | > 100 µM | > 100 µM | > 100 µM | > 100 µM | – | > 100 µM | > 100 µM | > 100 µM | > 100 µM | > 100 µM | – | – | – | –
21 | Cc1cn(C2OC(C)(CO)C(O)C2O)c(=O)[nH]c1=O (stereo not given) | > 100 µM | > 100 µM | > 100 µM | > 100 µM | > 100 µM | > 100 µM | – | > 100 µM | > 100 µM | > 100 µM | – | – | – | –
22 | N#CCCN(CCC#N)c1ccc(/C=C2\N=C(c3ccccc3)N(c3ccc(Cl)cc3)C2=O)cc1 | > 100 µM | > 100 µM | – | > 100 µM | > 100 µM | > 100 µM | > 100 µM | – | > 100 µM | > 100 µM | – | – | – | –
23 | O=S(=O)(O)c1cc2ccc1/C=C\c1ccc(cc1S(=O)(=O)O)N=Nc1ccc(c(S(=O)(=O)O)c1)/C=C\c1ccc(cc1S(=O)(=O)O)N=N2 | – | > 100 µM | > 100 µM | > 100 µM | > 100 µM | > 100 µM | – | – | > 100 µM | > 100 µM | – | – | – | –
